Results from patent US8283377B2, “Method for inhibiting blood vessel stenosis” (China Medical University, priority 2011, dated 2012).
“And” between values parts separate entries of the source, which are not always exact repeats. Equal entries are not always repeated. Marks after values point to notes of the source that are not given here.

Legend:
[1] = tested on: carotid artery of Sprague-Dawley (SD) rats after balloon catheter injury; assay: Animal test - treatment of carotid artery injury induced blood vessel stenosis; assay type: in vivo, rat; conditions: for Blood vessel neointimal layer area /middle layer area (intima/media ratio) / Blood vessel neointimal layer area: day 14
Experimental: Sprague-Dawley (SD) rats (purchased from BioLasco Taiwan Co. Ltd, Taipei) were used in the present experiment to carry out the animal test. The rats were bred in an environment with 12 hours light, followed by 12 hours dark, and fed to 10-weeks old (body weight: about 300 to 400 g). Then, carotid artery injury surgery and the following experiments were carried out. The present experiment followed the Animal Protection Act and the provisions of Animal Management Committee of National Dong Hwa University.
The SD rat was anesthetized by 320 mg/kg-body-weight chloral hydrate (purchased from Fluka), and then the abdominal area was faced upwards, and the limbs were fixed with a breathable tape on a surgery plate. The Casscells' method (Casscells et al., Migration of smooth muscle and endothelial cells. Critical events in restenosis, Circulation, 1992; 86; 723-729, which is incorporated hereinto by reference) was used to carry out the carotid artery injury surgery. First, the skin of the rat was cut open with a scissor from the midline of the neck jaw to the chest area, and then the connective tissue at the right side of the rat neck was separated from the muscle layer to expose the blood vessel next to the trachea, and the blood vessel is the common carotid artery. The right side common carotid artery, internal carotid artery, and external carotid artery were separated, and the connective tissue at the junction of these three blood vessels was completely striped. Then, the external carotid artery was tied up with a 2/0 sized silk thread, and the common carotid artery was clipped by a vascular clip to avoid heavy bleeding. A gap was made by cutting the external carotid artery with a microscopic scissor, and a balloon catheter (Cather French Size 2F, purchased from Edwards Lifescience) was implanted through the gap. The balloon catheter was inserted 5 cm into the common carotid artery, and 0.2 mL of a physiological saline solution was filled into the balloon catheter to expend the catheter. Then, the balloon catheter was pulled out to the gap of the external carotid artery, and the physiological saline solution was drawn out from the balloon catheter. After the common carotid artery was injured repeatedly for three times by this method, the gap of the external carotid artery and the bifurcation point between the external carotid artery and the common carotid artery were tied up with a 2/0 sized silk thread. Finally, the wound of the rat was stitched up and spread with an iodine solution. After the rat woke up, the carotid artery injury surgery was completed.
Two weeks after the carotid artery injury surgery, the rat was sacrificed with excess chloral hydrate (640 mg/kg-body weight). PBS (300 mL) was injected into the left ventricle of the rat using the heart perfusion method and flowed out from the right ventricle through systemic circulation. Neutral formalin (200 mL, 10 vol %) was injected into the left ventricle of the rat to immobilize the whole body tissue. The common carotid artery immobilized by formalin was removed and soaked in a 10 vol % neutral formalin solution.
The common carotid artery was divided into four sections and labeled with A, B, C, and D from the head to the heart. Each section was 4 mm in length and was placed in an embedding cassette, and then an automatic tissue processor (purchased from Sakura) was used to process the tissue. The process procedure was 1 hour in a 10 vol % formalin solution, 30 minutes in water, 1 hour in 80 vol % alcohol, 3 hours in 95 vol % alcohol, 4 hours in 100 vol % alcohol, 3 hours in xylene, and 3 hours in paraffin. After the tissue process procedure was completed, the tissue was wrapped by paraffin, and the tissue biopsy was carried out by a slicer (purchased from Lica) with a cut of 8 μm thickness. Immunohistochemical stain and H&E stain on the biopsy were carried out. […]

[2] = tested on: rat aortic smooth muscle cell line A7r5; assay: Inhibiting proliferation of smooth muscle cells - cell counting analysis (trypan blue); assay type: cell-based; conditions: 48 hours
Experimental: (§1) A rat aortic smooth muscle cell line A7r5 was used to carry out the present experiment. A Dulbecco's modified Eagle's medium (DMEM, purchased from Biowest) was used as a general culture medium. The medium was added with 4 mM of L-glutamine, 1.5 g/L sodium bicarbonate, 4.5 g/L glucose, and 10 wt % fetal bovine serum. The A7r5 smooth muscle cells were cultured in a 75 cm^2 petri dish, and 12 mL of the culture medium was added thereinto. The cells were placed and incubated in a cell incubator containing 5 vol % of carbon dioxide at 37° C. After the dish was fully covered by the grown cells, the medium was replaced once every 3 days, and 0.5 wt % trypsin was used for subculture.
(§2) In addition, a culture medium containing n-butylidenephthalide was prepared. Herein, n-butylidenephthalide was dissolved in dimethyl sulfoxide (purchased from Sigma), and solutions with n-butylidenephthalide concentrations of 0, 25, 50, 100, 150, and 200 mg/mL were prepared, and the solutions were stored at −20° C. When used to prepare a medium, the solutions were diluted by 1000 times with the general culture medium used for incubating smooth muscle cells to prepare a culture medium containing 0, 25, 50, 100, 150, or 200 μg/mL of n-butylidenephthalide.
The rat aortic smooth muscle cell line A7r5 was inoculated in a 6-hole culture dish (density: 1×10^5 cells/hole). After the cells were cultured for 24 hours, the medium was replaced by a medium containing n-butylidenephthalide with a concentration of 0, 25, 50, 100, 150, or 200 μg/mL to culture the smooth muscle cells. After another 48 hours, the cells were observed by an inverted microscope, and the cells were detached by 0.5 wt % trypsin. Then, 20 μL of the cell suspension was taken and mixed evenly with 20 μL trypan blue, and finally, 10 μL of the mixture was collected and added onto a blood cell counting plate. The cell number was counted by a microscope under 100× magnifications to evaluate the inhibition of n-butylidenephthalide on the growth of the smooth muscle cells.

[3] = tested on: rat aortic smooth muscle cell line A7r5; assay: Inhibiting proliferation of smooth muscle cells - cell cycle analysis (propidium iodide flow cytometry); assay type: cell-based; conditions: 24 hours
Experimental: as §1, §2
An inhibition test on the cell cycle progression of smooth muscle cells was carried out. Because the cellular DNA content is different in each cell cycle phase, the amount of DNA can be used to evaluate the cell cycle phase in which the cell proceeds. In another aspect, because propidium iodide can bind to DNA, and it can emit red fluorescent light with a wavelength of 625 nm after being excited by light with a wavelength of 488 nm, thus, propidium iodide was used as a fluorescent staining agent in the present experiment, and the red fluorescent intensity represented the amount of DNA, thereby determining which phase the cell was in during the cell cycle.
The rat aortic smooth muscle cell line A7r5 was inoculated in a 6-hole culture dish (density: 1×10^5 cells/hole). After the cells were cultured for 24 hours, the medium was replaced by a medium containing n-butylidenephthalide with a concentration of 0, 25, or 50 μg/mL to culture the smooth muscle cells. After another 24 hours, the cells were fixed with 70 vol % alcohol, and a phosphate buffer solution (PBS) was used to rinse the cells. Finally, propidium iodide (a solution containing 955 μL 1×PBS, 5 μL Triton X-100 (0.5 wt %, purchased from Sigma), 20 μL RNase A (10 mg/mL, purchased from Sigma), and 20 μL propidium iodide (1 mg/mL, purchased from Sigma)) was used to stain the cells for 15 minutes. Then, a flow cytometry (FC500, Beckman) was used to scan and collect 10,000 cells. Multicycle for Windows software (Phoenix Flow Systems) was used to analyze cellular cell cycle.

CCC/C=C1\OC(=O)c2ccccc21 [n-butylidenephthalide]
inhibition of blood vessel stenosis (in words) ([1]; 60 mg/kg-body weight): no significant inhibition effect
proportion of the rats whose increased area of the blood vessel neointimal layer was under 1×10^5 μm^2 ([1]; 60 mg/kg-body weight): 0%
Blood vessel neointimal layer area /middle layer area (intima/media ratio) ([1]; 60 mg/kg-body weight): 1.3 +/− 0.3
number of rats with increased neointimal area 0~50,000 μm^2 ([1]; 60 mg/kg-body weight, n = 6): 0
number of rats with increased neointimal area 50,000~100,000 μm^2 ([1]; 60 mg/kg-body weight, n = 6): 0
number of rats with increased neointimal area 100,000~150,000 μm^2 ([1]; 60 mg/kg-body weight, n = 6): 4
number of rats with increased neointimal area Above 150,000 μm^2 ([1]; 60 mg/kg-body weight, n = 6): 2
proportion of rats with increased neointimal area 100,000~150,000 μm^2 ([1]; 60 mg/kg-body weight, n = 6): 66.7%
proportion of rats with increased neointimal area Above 150,000 μm^2 ([1]; 60 mg/kg-body weight, n = 6): 33.3%
inhibition of blood vessel stenosis (in words) ([1]; 150 mg/kg-body weight): significantly be inhibited
inhibition of blood vessel stenosis compared with the sham group (intima/media ratio) ([1]; 150 mg/kg-body weight): 36.7%
inhibition of blood vessel stenosis compared with the sham group (neointimal layer area) ([1]; 150 mg/kg-body weight): 36.3%
proportion of the rats whose increased area of the blood vessel neointimal layer was under 1×10^5 μm^2 ([1]; 150 mg/kg-body weight): 50%
Blood vessel neointimal layer area /middle layer area (intima/media ratio) ([1]; 150 mg/kg-body weight, P < 0.05): 0.81 +/− 0.14*
number of rats with increased neointimal area 0~50,000 μm^2 ([1]; 150 mg/kg-body weight, n = 6): 0
number of rats with increased neointimal area 50,000~100,000 μm^2 ([1]; 150 mg/kg-body weight, n = 6): 3
number of rats with increased neointimal area 100,000~150,000 μm^2 ([1]; 150 mg/kg-body weight, n = 6): 3
number of rats with increased neointimal area Above 150,000 μm^2 ([1]; 150 mg/kg-body weight, n = 6): 0
proportion of rats with increased neointimal area 50,000~100,000 μm^2 ([1]; 150 mg/kg-body weight, n = 6): 50%
proportion of rats with increased neointimal area 100,000~150,000 μm^2 ([1]; 150 mg/kg-body weight, n = 6): 50%
inhibition of blood vessel stenosis (in words) ([1]; 300 mg/kg-body weight): significantly be inhibited
inhibition of blood vessel stenosis compared with the sham group (intima/media ratio) ([1]; 300 mg/kg-body weight): 57.8%
inhibition of blood vessel stenosis compared with the sham group (neointimal layer area) ([1]; 300 mg/kg-body weight): 56.2%
proportion of the rats whose increased area of the blood vessel neointimal layer was under 1×10^5 μm^2 ([1]; 300 mg/kg-body weight): 83.3%
Blood vessel neointimal layer area /middle layer area (intima/media ratio) ([1]; 300 mg/kg-body weight, P < 0.01): 0.54 +/− 0.24**
number of rats with increased neointimal area 0~50,000 μm^2 ([1]; 300 mg/kg-body weight, n = 6): 2
number of rats with increased neointimal area 50,000~100,000 μm^2 ([1]; 300 mg/kg-body weight, n = 6): 3
number of rats with increased neointimal area 100,000~150,000 μm^2 ([1]; 300 mg/kg-body weight, n = 6): 1
number of rats with increased neointimal area Above 150,000 μm^2 ([1]; 300 mg/kg-body weight, n = 6): 0
proportion of rats with increased neointimal area 0~50,000 μm^2 ([1]; 300 mg/kg-body weight, n = 6): 33.3%
proportion of rats with increased neointimal area 50,000~100,000 μm^2 ([1]; 300 mg/kg-body weight, n = 6): 50.0%
proportion of rats with increased neointimal area 100,000~150,000 μm^2 ([1]; 300 mg/kg-body weight, n = 6): 16.7%
Blood vessel neointimal layer area ([1]; carotid artery Section A, 60 mg/kg-body weight abdominal injection, days 1,3,5,7,9,11): 164528 +/− 81467 μm^2
Blood vessel neointimal layer area ([1]; carotid artery Section A, 150 mg/kg-body weight abdominal injection): 75272 +/− 36346 μm^2
Blood vessel neointimal layer area ([1]; carotid artery Section A, 300 mg/kg-body weight abdominal injection): 53118 +/− 33403 μm^2
Blood vessel neointimal layer area ([1]; carotid artery Section B, 60 mg/kg-body weight abdominal injection): 168355 +/− 37686 μm^2
Blood vessel neointimal layer area ([1]; carotid artery Section B, 150 mg/kg-body weight abdominal injection): 119827 +/− 35005 μm^2
Blood vessel neointimal layer area ([1]; carotid artery Section B, 300 mg/kg-body weight abdominal injection): 76551 +/− 45327 μm^2
Blood vessel neointimal layer area ([1]; carotid artery Section C, 60 mg/kg-body weight abdominal injection): 138260 +/− 36681 μm^2
Blood vessel neointimal layer area ([1]; carotid artery Section C, 150 mg/kg-body weight abdominal injection): 93111 +/− 19875 μm^2
Blood vessel neointimal layer area ([1]; carotid artery Section C, 300 mg/kg-body weight abdominal injection): 61150 +/− 27899 μm^2
Blood vessel neointimal layer area ([1]; carotid artery Section D, 60 mg/kg-body weight abdominal injection): 130852 +/− 77915 μm^2
Blood vessel neointimal layer area ([1]; carotid artery Section D, 150 mg/kg-body weight abdominal injection): 85273 +/− 15262 μm^2
Blood vessel neointimal layer area ([1]; carotid artery Section D, 300 mg/kg-body weight abdominal injection): 66654 +/− 23434 μm^2
Blood vessel neointimal layer area ([1]; whole carotid artery (Table 4), 60 mg/kg-body weight): 150499 +/− 34951 μm^2
Blood vessel neointimal layer area ([1]; whole carotid artery (Table 4), 150 mg/kg-body weight, P < 0.01): 93371 +/− 14693 ** μm^2
Blood vessel neointimal layer area ([1]; whole carotid artery (Table 4), 300 mg/kg-body weight, P < 0.01): 64368 +/− 20641 ** μm^2
Growth rate ([2]; 25 μg/mL): 0.56 +/− 0.06%
Growth rate ([2]; 50 μg/mL): 0.32 +/− 0.04%
Growth rate ([2]; 100 μg/mL): 0.25 +/− 0.03%
Growth rate ([2]; 150 μg/mL): 0.12 +/− 0.04%
Growth rate ([2]; 200 μg/mL): 0.10 +/− 0.02%
inhibition at 25 µg/mL ([2]; Rattus norvegicus, 25 μg/mL, read-out: inhibition rate of smooth muscle cell growth): 43.6%
IC50 ([2]; Rattus norvegicus, read-out: IC50 of smooth muscle cell growth): 27 µg/mL and 143 µM
effect on cell cycle of smooth muscle cells (in words) ([3]; 25 and 50 μg/mL): stagnate the smooth muscle cells in the G0/G1 phase
Ratio of cells in cell cycle phase G0/G1 ([3]; 25 μg/mL): 68.33 +/− 0.05%
Ratio of cells in cell cycle phase G0/G1 ([3]; 50 μg/mL): 68.9% and 68.86 +/− 5.2%
Ratio of cells in cell cycle phase G2/M ([3]; 25 μg/mL): 11.3 +/− 1.25%
Ratio of cells in cell cycle phase G2/M ([3]; 50 μg/mL): 12.1 +/− 1.15%
Ratio of cells in cell cycle phase S ([3]; 25 μg/mL): 20.33 +/− 2.05%
Ratio of cells in cell cycle phase S ([3]; 50 μg/mL): 19.0% and 19.00 +/− 4.3%
